Test results published in patent US4140707A, “Malonato platinum anti-tumor compounds” (priority 1977, dated 1979).

Legend:
[1] = system: Walker 256 Carcinosarcoma; test: Confirmatory antitumor activity, Walker 256 Carcinosarcoma (Table III); type: in vivo, Rat; conditions: i.p.
Method: (§1) Confirmatory tests of antitumor activity against the Walker 256 Circinosarcoma in rats, and the ADJ/PC6A tumor in mice were conducted. The initial test results are shown in Table III and confirm the potent action of the compounds of the invention against these other tumor systems.

Sarcoma 180 [2] = test: Large Sarcoma 180 regressions (Table II), injection day 8, observed approximately 60 days; type: in vivo, female Swiss white mice; conditions: single i.p. day 8, H2O solution
Method: In addition to the day 1 injections described above, in a number of cases injections were delayed until day 8 of tumor growth. In these cases the tumor was usually at least larger than 1/2 gm, as estimated by palpation. The animals were then injected and observed for a period of approximately 60 days. Activity was measured by the number of animals whose tumors had regressed to the vanishing point, while still allowing the animal to survive for this time period. Such test results are described in TABLE II below.

Sarcoma 180 [3] = test: Antitumor activity, solid Sarcoma 180 (Table I), T/C tumor weight ratio, sacrifice day 10; type: in vivo, female Swiss white mice
Method: The compounds of the invention were tested for anti-tumor activity using our standard screening tumor, solid sarcoma 180 tumer in female Swiss white mice, following standard protocols for this testing as set by the National Cancer Institute. (Cancer Chemotherapy Rep., 25(1962)).
For these tests an S 180 tumor taken from a sacrificed mouse was disected free of superfluous tissue and cut under sterile conditions into approximately 10 milligram size pieces. These tissue pieces were then implanted by trocar in the left axillary region, subcutaneously, in new mice. The mice were, on the average, approximately four weeks old and weighed 18-20 grams. Taking day 0 as the day of implant, the animals were sacrificed on day 10. The tumors were excised and weighed and the ratio of the weights of the tumors in mice in the treated animals to the control set of animals was obtained. This ratio, multiplied by 100, is given as the T/C ratio in Table I.
For the first set of tests the coordination compound was freshly dissolved in sterile distilled water and injected intraperitoneally on day 1 into each of the test mice. The volume of the injection was usually 1/2 ml. In some cases, in order to get an active dose into the animal where the chemical was not soluble in this amount of solvent, a fine dispersion was prepared of the dose needed for the test. Thus, some of our test results were obtained on animals where a slurry of the compound was injected. These are so noted in Table I below. In addition, for some of the compounds, there was injected about 1 ml of solution, either in one single injection, or in 2 injections given a few hours apart of 1/2 ml each. These injections were initially given in 4 different dose levels for each new compound with 6 mice in each dose level. The tests covered a dose range from a low ineffective dose, to an upper dose level which produced some deaths within the time period of the experiment.

[4] = Hydrolysis by U.V./vis spectral and conductivity studies; type: physicochemical
Excerpt: *U.V./via spectral and conductivity studies have shown that hydrolysis is negligible.

L1210 = test: Confirmatory antitumor activity at the National Cancer Institute, L1210 (Table IV); type: in vivo, Mice
Excerpt: Samples of the malonato diammine and malonato ethylene diamino complexes of platinum(II) were submitted to the Drug Research and Development Branch of the National Cancer Institute for screening for antitumor activity against the L1210 tumor in mice. They confirm the activity of the compounds of the invention.

ADJ/PC6A = test: Confirmatory antitumor activity, ADJ/PC6A (Table III); type: in vivo, Mouse; conditions: i.p.
Method: as §1

[5] = 10 mg/kg, single injection day 1 in oil
[6] = 20 mg/kg, single injection day 1 in oil
[7] = 40 mg/kg, single injection day 1 in oil
[8] = 80 mg/kg, single injection day 1 in oil
[9] = 4 mg/kg, i.p. daily for days 1-10, solution in H2O
[10] = 5 mg/kg, i.p. daily for days 1-10, solution in H2O
[11] = 6 mg/kg, i.p. daily for days 1-10, solution in H2O
[12] = 7 mg/kg, i.p. daily for days 1-10, solution in H2O
[13] = 10 mg/kg, single i.p. day 1, slurry in H2O
[14] = 15 mg/kg, single i.p. day 1, slurry in H2O
[15] = 20 mg/kg, single i.p. day 1, slurry in H2O
[16] = 25 mg/kg, single i.p. day 1, slurry in H2O
[17] = 30 mg/kg, single i.p. day 1, slurry in H2O
[18] = 50 mg/kg, single i.p. day 1, slurry in H2O
[19] = dose 4, single injection day 25 in oil
[20] = dose 20, single injection day 25 in oil
[21] = dose 100, single injection day 25 in oil
[22] = 10 mg/kg, single i.p. day 1, solution in H2O
[23] = 20 mg/kg, single i.p. day 1, solution in H2O
[24] = 40 mg/kg, single i.p. day 1, solution in H2O
[25] = 45 mg/kg, single i.p. day 1, solution in H2O
[26] = 50 mg/kg, single i.p. day 1, solution in H2O
[27] = 55 mg/kg, single i.p. day 1, solution in H2O
[28] = 60 mg/kg, single i.p. day 1, solution in H2O
[29] = 60 mg/kg, single i.p. day 1, vehicle not noted
[30] = 80 mg/kg, single i.p. day 1, solution in H2O
[31] = 80 mg/kg, single i.p. day 1, vehicle not noted
[32] = 100 mg/kg, single i.p. day 1, vehicle not noted
[33] = 120 mg/kg, single i.p. day 1, vehicle not noted

SMILES: O=C(O)CC(=O)O.[NH2-].[NH2-].[Pt+2] [Malonatodiammineplatinum(II)]
- % Inhibition [1, 5]: 100%
- Deaths [1, 5]: 0
- % Inhibition [1, 6]: 100%
- Deaths [1, 6]: 0
- % Inhibition [1, 7]: 100%
- Deaths [1, 7]: 0
- Deaths [1, 8]: 0
- Deaths (Sarcoma 180 [2]; 14 mg/kg): 4
- Total Number of Regressions (Sarcoma 180 [2]; 14 mg/kg): 2
- Deaths (Sarcoma 180 [2]; 16 mg/kg): 3
- Total Number of Regressions (Sarcoma 180 [2]; 16 mg/kg): 3
- Deaths (Sarcoma 180 [2]; 18 mg/kg): 2
- Total Number of Regressions (Sarcoma 180 [2]; 18 mg/kg): 4
- Deaths (Sarcoma 180 [2]; 20 mg/kg): 1
- Total Number of Regressions (Sarcoma 180 [2]; 20 mg/kg): 5
- No. of Deaths (Sarcoma 180 [3]; [9]): 0
- T/C (Sarcoma 180 [3]; [9]): 54
- No. of Deaths (Sarcoma 180 [3]; [10]): 0
- T/C (Sarcoma 180 [3]; [10]): 56
- No. of Deaths (Sarcoma 180 [3]; [11]): 0
- T/C (Sarcoma 180 [3]; [11]): 23
- No. of Deaths (Sarcoma 180 [3]; [12]): 0
- T/C (Sarcoma 180 [3]; [12]): 12
- No. of Deaths (Sarcoma 180 [3]; [13]): 0
- T/C (Sarcoma 180 [3]; [13]): 76
- No. of Deaths (Sarcoma 180 [3]; [14]): 0
- T/C (Sarcoma 180 [3]; [14]): 38
- No. of Deaths (Sarcoma 180 [3]; [15]): 0
- T/C (Sarcoma 180 [3]; [15]): 64
- No. of Deaths (Sarcoma 180 [3]; [16]): 0
- T/C (Sarcoma 180 [3]; [16]): 31
- No. of Deaths (Sarcoma 180 [3]; [17]): 1/6
- T/C (Sarcoma 180 [3]; [17]): 7
- No. of Deaths (Sarcoma 180 [3]; 40 mg/kg, single i.p. day 1, slurry in H2O): 6/6
- No. of Deaths (Sarcoma 180 [3]; [18]): 5/6
- T/C (Sarcoma 180 [3]; [18]): 1
- No. of Deaths (Sarcoma 180 [3]; 60 mg/kg, single i.p. day 1, slurry in H2O): 6/6
- hydrolysis [4]: negligible

SMILES: NCCN.O=C([O-])CC(=O)[O-].[Pt+2] [malonatoethylenediamineplatinum (II)]
- % Inhibition [1, 5]: 1%
- Deaths [1, 5]: 0
- % Inhibition [1, 6]: 25%
- Deaths [1, 6]: 0
- % Inhibition [1, 7]: 100%
- Deaths [1, 7]: 0
- Deaths [1, 8]: 0
- % Inhibition ([1]; dose 80, single injection day 1 in oil): 100%
- Deaths ([1]; dose 160, single injection day 1 in oil): all
- Deaths (Sarcoma 180 [2]; 40 mg/kg): 3
- Total Number of Regressions (Sarcoma 180 [2]; 40 mg/kg): 3
- Deaths (Sarcoma 180 [2]; 45 mg/kg): 5
- Total Number of Regressions (Sarcoma 180 [2]; 45 mg/kg): 1
- Deaths (Sarcoma 180 [2]; 50 mg/kg): 4
- Total Number of Regressions (Sarcoma 180 [2]; 50 mg/kg): 2
- Deaths (Sarcoma 180 [2]; 60 mg/kg): 3
- Total Number of Regressions (Sarcoma 180 [2]; 60 mg/kg): 3
- % Increase in Lifespan (L1210; 16.5 mg/kg, i.p. daily days 1-9, repeat test): 160%
- % Increase in Lifespan (L1210; 25 mg/kg, i.p. daily days 1-9): 160%
- % Inhibition (ADJ/PC6A; [19]): 1.3%
- Deaths (ADJ/PC6A; [19]): 0
- % Inhibition (ADJ/PC6A; [20]): 94%
- Deaths (ADJ/PC6A; [20]): 0
- % Inhibition (ADJ/PC6A; [21]): 100%
- Deaths (ADJ/PC6A; [21]): 0
- Deaths (ADJ/PC6A; dose 500, single injection day 25 in oil): all
- No. of Deaths (Sarcoma 180 [3]; [22]): 0
- T/C (Sarcoma 180 [3]; [22]): 88
- No. of Deaths (Sarcoma 180 [3]; [23]): 0
- T/C (Sarcoma 180 [3]; [23]): 58
- No. of Deaths (Sarcoma 180 [3]; [24]): 0
- T/C (Sarcoma 180 [3]; [24]): 18
- No. of Deaths (Sarcoma 180 [3]; [25]): 0
- T/C (Sarcoma 180 [3]; [25]): 49
- No. of Deaths (Sarcoma 180 [3]; [26]): 0
- T/C (Sarcoma 180 [3]; [26]): 35
- No. of Deaths (Sarcoma 180 [3]; [27]): 0
- T/C (Sarcoma 180 [3]; [27]): 38
- No. of Deaths (Sarcoma 180 [3]; [28]): 3/6
- T/C (Sarcoma 180 [3]; [28]): 15
- No. of Deaths (Sarcoma 180 [3]; [29]): 0
- T/C (Sarcoma 180 [3]; [29]): 80
- No. of Deaths (Sarcoma 180 [3]; [30]): 3/6
- T/C (Sarcoma 180 [3]; [30]): 24
- No. of Deaths (Sarcoma 180 [3]; [31]): 0
- T/C (Sarcoma 180 [3]; [31]): 138
- No. of Deaths (Sarcoma 180 [3]; [32]): 0
- T/C (Sarcoma 180 [3]; [32]): 85
- No. of Deaths (Sarcoma 180 [3]; [33]): 0
- T/C (Sarcoma 180 [3]; [33]): 50
